Data: publication PMC6325233, “A Novel Actin Binding Drug with In Vivo Efficacy” (Antimicrobial Agents and Chemotherapy, 2018)
“Also recorded” adds a separate entry of the source. Read-outs that look alike come from different tables or passages of the source.

Assays:
Format in all cases: cell-based
[1] = tested on: S. cerevisiae (diploid, BY4743) actin cables; assay: Actin cable visualization, TRITC-labeled phalloidin; details: for Cells without actin cables, Avg / Cells with actin cables, Avg: average of two replicates; for Cells without actin cables, Avg: untreated 25.87; for Cells with actin cables, Avg: untreated 74.13
Description: S. pombe and S. cerevisiae cells (OD600 of 0.6 to 0.8) were incubated with 1× MIC of alkyne-OF at 30°C, with samples removed at 10, 30, and 60 min postincubation. The cells were washed in PBS and fixed with 3.7% formaldehyde. The cells were permeabilized by adding 0.5% Triton X-100. The cells were washed with PBS before the Click reaction with azide-derivatized Alexa Fluor 488 (Click-iT EdU imaging kit; Thermo Fisher Scientific). The cells were visualized with an Olympus FV1000 confocal microscope. A competition assay was carried out by pretreating cells with 1× MIC of the native occidiofungin followed by treatment with alkyne-OF. […] A 6.6 µM concentration of tetramethyl rhodamine isothiocyanate (TRITC)-tagged phalloidin was added to formaldehyde-fixed cells (permeabilized with 0.2% Triton X-100) for 30 min at room temperature. The cells were washed in PBS, added to a concanavalin A-treated glass slides, and overlaid with Vectashield plus DAPI. Images were viewed using a Nikon 50i fluorescence microscope with a 100× oil immersion objective and Texas Red and DAPI filter sets. Random images were captured using a Retiga EXi black and white charge-coupled-device (CCD) camera and Image Q software. All images were captured using the same exposure settings, with the image contrast altered postcapture using CorelDraw.

[2] = tested on: Candida krusei 9541; assay: MIC susceptibility testing; set-up: key to MIC, 50% inhibition: -: indicates absence of isolates with 50% inhibition endpoint; details: CLSI M27-A3
Description: (§1) Occidiofungin was purified from a liquid culture of Burkholderia contaminans MS14 as previously described ([21]). MIC susceptibility testing was performed according to the CLSI M27-A3 and M38-A2 standards for the susceptibility testing of yeasts and filamentous fungi, respectively. S. cerevisiae deletion mutants were obtained from the commercially available BY4741 deletion library (Thermo Scientific).

[3] = tested on: Aspergillus flavus 28455; assay: MIC susceptibility testing; set-up: key to MIC, 50% inhibition: -: indicates absence of isolates with 50% inhibition endpoint; details: CLSI M38-A2
Description: as §1

[4] = tested on: Aspergillus fumigatus 28435; assay: MIC susceptibility testing; set-up: key to MIC, 50% inhibition: -: indicates absence of isolates with 50% inhibition endpoint; details: CLSI M38-A2
Description: as §1

[5] = tested on: Candida parapsilosis 28174; assay: MIC susceptibility testing; set-up: key to MIC, 50% inhibition: -: indicates absence of isolates with 50% inhibition endpoint; details: CLSI M27-A3
Description: as §1

[6] = tested on: Cryptococcus neoformans 28446; assay: MIC susceptibility testing; set-up: key to MIC, 50% inhibition: -: indicates absence of isolates with 50% inhibition endpoint; details: CLSI M27-A3; 72 hours
Description: as §1

[7] = tested on: Candida glabrata 25742; assay: MIC susceptibility testing; set-up: key to MIC, 50% inhibition: -: indicates absence of isolates with 50% inhibition endpoint; details: CLSI M27-A3
Description: as §1

[8] = tested on: Mucor racemosus 27784; assay: MIC susceptibility testing; set-up: key to MIC, 50% inhibition: -: indicates absence of isolates with 50% inhibition endpoint; details: CLSI M38-A2
Description: as §1

[9] = tested on: Rhizopus oryzae 28403; assay: MIC susceptibility testing; set-up: key to MIC, 50% inhibition: -: indicates absence of isolates with 50% inhibition endpoint; details: CLSI M38-A2
Description: as §1

[10] = tested on: Aspergillus flavus 28517; assay: MIC susceptibility testing; set-up: key to MIC, 50% inhibition: -: indicates absence of isolates with 50% inhibition endpoint; details: CLSI M38-A2
Description: as §1

[11] = tested on: Rhizopus microsporus 28506; assay: MIC susceptibility testing; set-up: key to MIC, 50% inhibition: -: indicates absence of isolates with 50% inhibition endpoint; details: CLSI M38-A2
Description: as §1

[12] = tested on: Rhizopus microsporus 27785; assay: MIC susceptibility testing; set-up: key to MIC, 50% inhibition: -: indicates absence of isolates with 50% inhibition endpoint; details: CLSI M38-A2
Description: as §1

[13] = tested on: Aspergillus fumigatus 28434; assay: MIC susceptibility testing; set-up: key to MIC, 50% inhibition: -: indicates absence of isolates with 50% inhibition endpoint; details: CLSI M38-A2
Description: as §1

[14] = tested on: Candida albicans 28102; assay: MIC susceptibility testing; set-up: key to MIC, 50% inhibition: -: indicates absence of isolates with 50% inhibition endpoint; details: CLSI M27-A3
Description: as §1

[15] = tested on: Mucor fragilis 27782; assay: MIC susceptibility testing; set-up: key to MIC, 50% inhibition: -: indicates absence of isolates with 50% inhibition endpoint; details: CLSI M38-A2
Description: as §1

[16] = tested on: Cryptococcus neoformans 27708; assay: MIC susceptibility testing; set-up: key to MIC, 50% inhibition: -: indicates absence of isolates with 50% inhibition endpoint; details: CLSI M27-A3; 72 hours
Description: as §1

Substance: occidiofungin
- Cells with actin cables, % [1]: 1.32%
- Cells without actin cables, Avg ([1]; 0.5X MIC, 30 min, SD 1.45): 97.66%
- Cells with actin cables, Avg ([1]; 0.5X MIC, 30 min, SD 1.45): 2.34%
- Cells without actin cables, % ([1]; 0.5X MIC, 30 min, replicate 1): 98.68%
- Cells with actin cables, % ([1]; 0.5X MIC, 30 min, replicate 2): 3.36%
- Cells without actin cables, % ([1]; 0.5X MIC, 30 min, replicate 2): 96.64%
- Cells without actin cables, Avg ([1]; 0.5X MIC, 60 min, SD 0.25): 99.82%
- Cells with actin cables, Avg ([1]; 0.5X MIC, 60 min, SD 0.25): 0.18%
- Cells with actin cables, % ([1]; 0.5X MIC, 60 min, replicate 1): 0%
- Cells without actin cables, % ([1]; 0.5X MIC, 60 min, replicate 1): 100%
- Cells with actin cables, % ([1]; 0.5X MIC, 60 min, replicate 2): 0.36%
- Cells without actin cables, % ([1]; 0.5X MIC, 60 min, replicate 2): 99.64%
- effect on actin organization ([1]; 0.5× MIC, 30 min): an accumulation of actin patches and/or aggregates of F-actin were observed throughout the treated cells with a concomitant loss of actin cables; also recorded: a loss of actin cables and the accumulation of actin aggregates
- MIC, 50% inhibition ([2]; 24 hours): 2 µg/mL
- MIC, 100% inhibition ([2]; 24 hours): 4 µg/mL
- MIC, 50% inhibition ([2]; 48 hours): -
- MIC, 100% inhibition ([2]; 48 hours): 4 µg/mL
- MIC, 50% inhibition ([3]; 24 hours): 2 µg/mL
- MIC, 100% inhibition ([3]; 24 hours): 4 µg/mL
- MIC, 50% inhibition ([3]; 48 hours): -
- MIC, 100% inhibition ([3]; 48 hours): 4 µg/mL
- MIC, 50% inhibition ([4]; 24 hours): -
- MIC, 100% inhibition ([4]; 24 hours): 2 µg/mL
- MIC, 50% inhibition ([4]; 48 hours): -
- MIC, 100% inhibition ([4]; 48 hours): 2 µg/mL
- MIC, 50% inhibition ([5]; 24 hours): -
- MIC, 100% inhibition ([5]; 24 hours): 4 µg/mL
- MIC, 50% inhibition ([5]; 48 hours): -
- MIC, 100% inhibition ([5]; 48 hours): 4 µg/mL
- MIC, 50% inhibition [6]: -
- MIC, 100% inhibition [6]: 1 µg/mL
- MIC, 50% inhibition ([7]; 24 hours): -
- MIC, 100% inhibition ([7]; 24 hours): 2 µg/mL
- MIC, 50% inhibition ([7]; 48 hours): -
- MIC, 100% inhibition ([7]; 48 hours): 2 µg/mL
- MIC, 50% inhibition ([8]; 24 hours): 2 µg/mL
- MIC, 100% inhibition ([8]; 24 hours): 4 µg/mL
- MIC, 50% inhibition ([8]; 48 hours): -
- MIC, 100% inhibition ([8]; 48 hours): 4 µg/mL
- MIC, 50% inhibition ([9]; 24 hours): 4 µg/mL
- MIC, 100% inhibition ([9]; 24 hours): 8 µg/mL
- MIC, 50% inhibition ([9]; 48 hours): -
- MIC, 100% inhibition ([9]; 48 hours): 8 µg/mL
- MIC, 50% inhibition ([10]; 24 hours): -
- MIC, 100% inhibition ([10]; 24 hours): 4 µg/mL
- MIC, 50% inhibition ([10]; 48 hours): -
- MIC, 100% inhibition ([10]; 48 hours): 4 µg/mL
- MIC, 50% inhibition ([11]; 24 hours): 4 µg/mL
- MIC, 100% inhibition ([11]; 24 hours): 8 µg/mL
- MIC, 50% inhibition ([11]; 48 hours): -
- MIC, 100% inhibition ([11]; 48 hours): 8 µg/mL
- MIC, 50% inhibition ([12]; 24 hours): 2 µg/mL
- MIC, 100% inhibition ([12]; 24 hours): 4 µg/mL
- MIC, 50% inhibition ([12]; 48 hours): -
- MIC, 100% inhibition ([12]; 48 hours): 8 µg/mL
- MIC, 50% inhibition ([13]; 24 hours): -
- MIC, 100% inhibition ([13]; 24 hours): 4 µg/mL
- MIC, 50% inhibition ([13]; 48 hours): -
- MIC, 100% inhibition ([13]; 48 hours): 4 µg/mL
- MIC, 50% inhibition ([14]; 24 hours): -
- MIC, 100% inhibition ([14]; 24 hours): 2 µg/mL
- MIC, 50% inhibition ([14]; 48 hours): -
- MIC, 100% inhibition ([14]; 48 hours): 2 µg/mL
- MIC, 50% inhibition ([15]; 24 hours): 2 µg/mL
- MIC, 100% inhibition ([15]; 24 hours): 4 µg/mL
- MIC, 50% inhibition ([15]; 48 hours): -
- MIC, 100% inhibition ([15]; 48 hours): 4 µg/mL
- MIC, 50% inhibition [16]: -
- MIC, 100% inhibition [16]: 2 µg/mL
